# Assay results as given in PubChem BioAssay (NCI).
#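 GI50: concentration for 50% inhibition of growth. At the TGI there is no net growth.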
# Columns and labels:
# Assay in all cases: growth of human tumour cells (NCI), 384-well format
# [1] = test system: UO-31 renal
# [2] = test system: RPMI-8226 leukemia
# [3] = test system: MCF7 breast
# [4] = test system: NCI/ADR-RES ovarian
# [5] = test system: HL-60(TB) leukemia
# [6] = test system: MDA-MB-468 breast
# [7] = test system: 786-0 renal
# [8] = test system: MOLT-4 leukemia
# [9] = test system: NCI-H23 lung
# [10] = test system: TK-10 renal
# [11] = test system: SK-MEL-2 melanoma
# [12] = test system: A498 renal
# [13] = test system: SR leukemia
# [14] = test system: ACHN renal
# [15] = test system: HCT-15 colon
# [16] = test system: UACC-62 melanoma
# [17] = test system: SF-295 CNS
compound,measurement,setting,value
Cc1c(-c2c(-c3ccc(F)o3)sc3ncnc(O[C@H](Cc4ccccc4OCc4ccnn4CC(F)(F)F)C(=O)O)c23)ccc(OCCN2CCN(C)CC2)c1Cl,GI50,[1],15.6 µM
same,TGI,[1],29.1 µM
same,GI50,[2],< 0.01 µM
same,TGI,[2],< 0.01 µM
same,GI50,[3],< 0.01 µM
same,TGI,[3],1.18 µM
same,GI50,[4],27.4 µM
same,TGI,[4],95.7 µM
same,GI50,[5],< 0.01 µM
same,TGI,[5],< 0.01 µM
same,GI50,[6],< 0.01 µM
same,TGI,[6],< 0.01 µM
same,GI50,[7],2.11 µM
same,TGI,[7],4.5 µM
same,GI50,[8],< 0.01 µM
same,TGI,[8],< 0.01 µM
same,GI50,[9],0.0113 µM
same,TGI,[9],0.0318 µM
same,GI50,[10],3.27 µM
same,TGI,[10],8.77 µM
same,GI50,[11],< 0.01 µM
same,TGI,[11],< 0.01 µM
same,GI50,[12],3.34 µM
same,TGI,[12],9.93 µM
same,GI50,[13],< 0.01 µM
same,TGI,[13],< 0.01 µM
same,GI50,[14],6.94 µM
same,TGI,[14],18.8 µM
same,GI50,[15],10.4 µM
same,TGI,[15],22.2 µM
same,GI50,[16],< 0.01 µM
same,TGI,[16],0.0102 µM
same,GI50,[17],1.66 µM
same,TGI,[17],3.06 µM
